Assay results published in patent US20130315895A1, “COMBINATION OF A cMET INHIBITOR AND AN ANTIBODY TO HGF AND/OR cMET” (priority 2010, published 2013).

Tests used:
Human U87MG Glioblastoma [1] = experiment: In vivo evaluation of Compound 45, alone and in combination with anti-HGF mAb HuL2G7, in human U87MG glioblastoma implanted nude mice (tumor growth delay method)
Experimental: A. In Vivo Evaluation of Compound 45, Alone and in Combination with Anti-HGF mAb HuL2G7, in Human U87MG Glioblastoma Implanted Nude Mice
Female athymic nude mice (Harlan), 10 weeks of age, were fed ad libitum water (reverse osmosis, 1 ppm […]) and an irradiated standard rodent diet (NIH31 Modified and Irradiated) consisting of: 18% protein, 5% fat, and 5% fiber. Mice were housed on irradiated Enrich-o′-Cobs™ laboratory animal bedding in static microisolators on a 12-hour light cycle at 21-22° C. (70-72° F.) and 40-60% humidity.
The human U87MG glioblastoma was maintained in serial s.c. transplantation in nude mice. Mice were implanted subcutaneously in the flank with a 1 mm^3 fragment of U87MG glioblastoma. Tumors were monitored twice weekly then subsequently daily as the neoplasms reached the desired size, approximately 190 mm^3. At 13 days, when the tumors attained a size between 126-288 mm^3 in calculated tumor volume, the animals were pair-matched into various treatment groups (the mean tumor volume in each group was 184-192 mm^3). Estimated tumor volume was calculated using the formula:
(§1) where w=width and l=length in mm of a U87MG glioblastoma.
Compound 45 was produced as described above. Compound 45 was then prepared for administration in 30% Captisol/25 mM citrate at pH 3.0. HuL2G7 was then provided as a 19.0 mg/ml stock solution in normal saline. The stock solution was diluted with normal saline to provide the formulation for injection.
The concentration of each compound was such that the desired dose was delivered in a volume of 5 μl per gram body weight. Dosing solutions of Compound 45 were prepared fresh weekly and stored at room temperature. Dosing solutions of HuL2G7 were prepared fresh prior to each treatment and were stored under refrigeration along with the stock solution.
On Day 1, animals were pairmatched by tumor size into 16 groups of 10 mice each. Compound 45 was given p.o. at 10.8, 32.4 and 108 mg/kg qd×14. HuL2G7 was given i.v. at 1, 3 and 10 mg/kg qwk×2. Treatment with both agents either alone or in combination was initiated on Day 1. Mice treated with monotherapy received the vehicle used for the other agent. There was a vehicle control group which received the Captisol/citrate, pH 3.0 vehicle p.o. qd×14 as well as saline i.v. qwk×2. Treatment groups were compared for statistical significance to the vehicle control. Groups that received the combination were compared for statistical significance to the monotherapy groups that received the same dose of the two agents used in combination. The experiment was terminated on Day 44.
(§2) The tumor growth delay (TGD) method was used in this study; treatment-effected median increases in time to endpoint (TTE) of various treatment groups were compared to untreated and vehicle controls. In the TGD method, each animal was euthanized as a cancer death when its U87MG glioblastoma reached a size of 2000 mm^3. TTE values were determined for all groups based on the calculated day reaching endpoint as given by the formula: […]
where TTE is expressed in days, endpoint volume is in mm^3, b is the intercept, and m is the slope of the line obtained by linear regression of a log-transformed tumor growth data set. The data set is comprised of the first observation that exceeded the study endpoint volume and the three consecutive observations that immediately preceded the attainment of the endpoint volume. The calculated TTE is usually less than the day on which an animal is euthanized for tumor size. […] Animals classified as treatment related deaths (TR) or non-treatment-related metastatic deaths (NTRm) are assigned a TTE value equal to the day of death. Animals classified as non-treatment-related deaths (NTRu or NTRa) are excluded from TTE calculations. Treatment efficacy was determined from tumor growth delay (TGD), which is defined as the increase in the median TTE for a treatment group compared to the control group: […]

Human U87MG Glioblastoma [2] = experiment: In vivo evaluation of Compounds 3 and 45, alone and in combination with anti-HGF mAb HuL2G7, in human U87MG glioblastoma implanted nude mice (tumor growth delay method); conditions: for induction of regressions: monotherapy p.o. qd x 14; for tumor growth delays / tumor growth delays (% of median TTE of control): monotherapy p.o. qd x 14 (Table 4: Cmpd 45 136.05 mg/kg, Cmpd 3 200 mg/kg)
Experimental: B. In Vivo Evaluation of Compounds 3 and 45, Alone and in Combination with Anti-HGF mAb HuL2G7, in Human U87MG Glioblastoma Implanted Nude Mice
Female athymic nude mice (Harlan), 9 weeks of age, were fed ad libitum water (reverse osmosis, 1 ppm Cl2) and an irradiated standard rodent diet (NIH31 Modified and Irradiated) consisting of: 18% protein, 5% fat, and 5% fiber. Mice were housed on irradiated Enrich-O'Cobs™ laboratory animal bedding in static microisolators on a 12-hour light cycle at 21-22° C. (70-72° F.) and 40-60% humidity.
The human U87MG glioblastoma utilized in the present study was maintained in serial s.c. transplantation in nude mice. Mice were implanted subcutaneously in the flank with a 1 mm^3 fragment of U87MG glioblastoma. Tumors were monitored as the neoplasms reached the desired size, approximately 190 mm^3. At 12 days, when the tumors attained a size between 172-256 mm^3 in calculated tumor volume, the animals were pair-matched into various treatment groups (the mean tumor volume in each group was 190-198 mm^3). Estimated tumor volume was calculated using the formula:
as §1
Compounds 3 and 45 were prepared by as described above. Compounds 3 and 45 were then prepared for administration as suspensions in 30% Captisol/100 mM citrate at pH 3.0. HuL2G7 was then provided as a 20.7 mg/ml stock solution in normal saline. The stock solution was diluted with normal saline to provide the formulation for injection.
The concentration of each compound was such that the desired dose was delivered in a volume of 5 μl per gram body weight. Dosing solutions of Compounds 3 and 45 were prepared fresh weekly and stored under refrigeration. Dosing solutions of HuL2G7 were prepared fresh prior to each treatment and were stored under refrigeration along with the stock solution.
On Day 1, animals were pairmatched by tumor size into 8 groups of 10 mice each. […] HuL2G7 was given i.v. at 10 mg/kg qwk×2. Treatment with all agents, either alone or in combination, was initiated on Day 1. Mice treated with monotherapy received the vehicle used for the other agent. There was a vehicle control group which received the Captisol/citrate, pH 3.0 vehicle p.o. qd×14 as well as saline i.v. qwk×2. Treatment groups were compared for statistical significance to the vehicle control. Groups that received the combinations were compared for statistical significance to the monotherapy groups that received the two agents used in combination. The experiment was terminated on Day 43.
as §2
where TTE is expressed in days, endpoint volume is in mm^3, b is the intercept, and m is the slope of the line obtained by linear regression of a log-transformed tumor growth data set. The data set is comprised of the first observation that exceeded the study endpoint volume and the three consecutive observations that immediately preceded the attainment of the endpoint volume. The calculated TTE is usually less than the day on which an animal is euthanized for tumor size. […] Animals classified as treatment related deaths (TR) or non-treatment-related metastatic deaths (NTRm) are assigned a TTE value equal to the day of death. Animals classified as non-treatment-related deaths (NTRu or NTRa) are excluded from TTE calculations.
Treatment efficacy was determined from tumor growth delay (TGD), which is defined as the increase in the median TTE for a treatment group compared to the control group:
expressed in days, or as a percentage of the median TTE of the control group: […]

[3] = monotherapy, text summary over doses (Compound 45 daily for 14 days; HuL2G7 i.v. qwk x 2)
[4] = monotherapy: Compound 45 10.8 mg/kg p.o. qd x 14 (HuL2G7 0)
[5] = monotherapy: Compound 45 32.4 mg/kg p.o. qd x 14 (HuL2G7 0)
[6] = monotherapy: Compound 45 108 mg/kg p.o. qd x 14 (HuL2G7 0)

SMILES | induction of regressions (Human U87MG Glioblastoma [1]; monotherapy) | tumor growth delays (Human U87MG Glioblastoma [1]; [3]) | tumor growth delays (% of median TTE of control) (Human U87MG Glioblastoma [1]; [3]) | Regressions (CR/PR per 10 mice) (Human U87MG Glioblastoma [1]; [4]) | Tumor Growth Delay (TGD) (Human U87MG Glioblastoma [1]; [4]) | Regressions (CR/PR per 10 mice) (Human U87MG Glioblastoma [1]; [5]) | Tumor Growth Delay (TGD) (Human U87MG Glioblastoma [1]; [5]) | Regressions (CR/PR per 10 mice) (Human U87MG Glioblastoma [1]; [6]) | Tumor Growth Delay (TGD) (Human U87MG Glioblastoma [1]; [6]) | induction of regressions (Human U87MG Glioblastoma [2]) | tumor growth delays (Human U87MG Glioblastoma [2]) | tumor growth delays (% of median TTE of control) (Human U87MG Glioblastoma [2]) | melting point
Cn1cc(-c2ccc3nnc(C(F)(F)c4ccc5nc(NC(=O)C6CC6)cn5n4)n3c2)cn1 [Compound 45, N-(6-(difluoro(6-(1-methyl-1H-pyrazol-4-yl)-[1,2,4]triazolo[4,3-a]pyridin-3-yl)methyl)imidazo[1,2-b]pyridazin-2-yl)cyclopropanecarboxamide] | Neither agent was able to induce regressions | 3 to 4 days | ca. 30% | 0/10 | 0 days | 0/10 | 3.9 days | 0/10 | 3.1 days | Neither of these agents was able to induce regressions | 3 days | ca. 23% | –
O=C(Nc1cn2nc(Sc3nnc4ccccn34)ccc2n1)C1CC1 [Compound 3, N-(6-([1,2,4]triazolo[4,3-a]pyridin-3-ylthio)imidazo[1,2-b]pyridazin-2-yl)cyclopropanecarboxamide] | – | – | – | – | – | – | – | – | – | Neither of these agents was able to induce regressions | 3 days | ca. 23% | –
Cn1cc(-c2ccc3nnn(Cc4ccc5nc(NC(=O)C6CC6)cn5n4)c3c2)cn1 [Compound 13, N-(6-((6-(1-methyl-1H-pyrazol-4-yl)-1H-benzo[d][1,2,3]triazol-1-yl)methyl)imidazo[1,2-b]pyridazin-2-yl)cyclopropanecarboxamide] | – | – | – | – | – | – | – | – | – | – | – | – | 250.2 to 251.6 °C
